Results as given in patent publication US12465630B2, “Small peptide compositions and uses thereof” (University of Pittsburgh—Of the Commonwealth System of …, priority 2018, dated 2025).
“Also recorded” adds a separate entry of the source. Ends that are not written are not given here.

What was measured:
[1] = tested on: primary lung fibroblasts; details: for number of viable cells (Calcein-AM uptake): 1 to 1000 ng/mL, 24 hours
Description: The effect of IP-10-related peptides on viability of lung fibroblasts was evaluated. Primary lung fibroblasts from healthy patients (SC31 and SC45) were either left untreated or treated with various concentrations of peptides (1 to 1000 ng/mL) for 24 hours. Treatment for 30 minutes with 70% ethanol in water was used as a positive control for dead cells. The Molecular Probes LIVE/DEAD Viability/Cytotoxicity Kit for mammalian cells (Invitrogen) was used to stain live cells. Following the manufacturer's protocol, at the end of treatment, cells in 96-well plates were washed with PBS, and then incubated in 2 μM Calcein-AM solution for 45 minutes at room temperature. Following incubation, the cells were imaged under a fluorescence microscope using the GFP channel. For quantification, ImageJ was used to count the number of live cells per field.

[2] = tested on: cardiomyocytes; experiment: Motility (scratch) assay, cardiomyocytes; type: cell-based, mouse; details: TGFβ1 10 ng/mL + agent 10 μM, 24 h; FIG. 1A
Description: (§1) Primary cardiac fibroblasts and cardiomyocytes were isolated from both wild-type and CXCR3−/− neonatal mouse pups. After washing in PBS, hearts were stirred for 5 minutes in 0.5% trypsin at 37° C. to dissociate cells into solution. The suspended cells were then transferred to DMEM containing 20% fetal bovine serum (FBS) on ice to inactivate trypsin activity, and dissociation was repeated twice more with fresh trypsin solution. Cells were then washed and plated into 6-well plates at 1.25×10^6 cells/well, suspended in cardiac cell media (DMEM containing 7.5% dialyzed FBS and 1% antibiotic/antimitotic solution). After three hours, adhered fibroblasts were separated from the unattached cardiomyocytes through resuspension of the cells, and cardiomyocytes were plated separately at a density of 5×10^5 cells/ml.
(§2) To determine the effect of IP-10p on TGFβ1-induced cell migration, motility assays were performed on cardiac fibroblasts, cardiomyocytes, and co-cultures (2:1 ratio of cardiomyocytes to fibroblasts). Cells were plated at 2.5×10^5 cells/well in a 12-well uncoated plate in depleted media (DMEM containing 0.5% FBS) 24 hours before beginning the experiment. A pipette tip was used to create a scratch in the monolayer and the plate was washed twice with PBS to remove scraped cells. Cells were then treated with TGFβ1 (R&D Systems, Minneapolis, MN) alone (10 ng/mL) to stimulate fibrosis, CXCL10 alone (10 μM), IP-10p alone (10 μM), TGFβ1+CXCL10, TGFβ1+IP-10p, or left untreated. Images were taken immediately after scratching and 24 hours later, and Adobe Photoshop was used to quantify wound motility as distance between wound edges relative to the initial scratch width.

[3] = tested on: cardiac fibroblasts; experiment: Motility (scratch) assay, cardiac fibroblasts; type: cell-based, mouse
Description: as §1, §2

[4] = tested on: cardiac fibroblasts (CF) and cardiomyocytes (CM); experiment: In vitro cellular function assays on CM and CF (P38 signaling, motility, ECM); type: cell-based, mouse
Text: (§3) CM and CF were isolated from wild type and CXCR3-null FVB neonatal mice. Following isolation, CM, CF, or CM/CF in both direct and indirect co-cultures were challenged with CM and CF activating growth factor transforming growth factor […]. Antagonist peptide treatments, CRF-5-3 and CRF-5-5, were given alone or in combination with CXCL10. To determine whether CRF-5-3 and CRF-5-5 block CXCL10 binding to its receptor, the ability of biotin-tagged CXCL10 and/or FITC-tagged CRF-5-5 to compete for binding to CM and CF was analyzed using flow cytometry. In vitro cellular function assays were assessed for migration, apoptosis, and extracellular matrix (ECM) secretion. Real time quantitative polymerase chain reaction was employed in order to determine modified relative gene expression of both CM and FB, following treatment.

[5] = tested on: CM/CF co-cultures; experiment: Histochemical and fluorescence analyses of ECM in CM/CF co-cultures; type: cell-based, mouse
Text: as §3

[6] = tested on: cardiomyocytes (CM); experiment: Real time quantitative PCR relative gene expression, cardiomyocytes; type: cell-based, mouse; details: peptide with CXCL10
Text: as §3

[7] = tested on: cardiac fibroblasts (CF); experiment: Real time quantitative PCR relative gene expression, cardiac fibroblasts; type: cell-based, mouse; details: peptide with CXCL10
Text: as §3

[8] = tested on: cardiac fibroblasts; experiment: P38 MAPK-dependent extracellular matrix production in cardiac fibroblasts; type: cell-based, mouse
Text: as §3

[9] = tested on: primary lung fibroblasts; experiment: qPCR of pro-fibrotic mRNAs in primary lung fibroblasts; type: cell-based, human; details: TGF-β 10 ng/mL, 24 h
Description: The next day, the medium was changed to quiescent medium and the cells were incubated in this medium for 24 hours. The following day, cells were either left untreated, treated with 10 ng/mL or 100 ng/mL of IP-10-1 (SEQ ID NO: 2), IP-10-2 (SEQ ID NO: 3) or IP-10-3 (SEQ ID NO: 4) peptide, treated with 10 ng/mL TGF-β, or treated with peptide and TGF-β for 24 hours. Total RNA was extracted using the Qiagen miRNeasy kit (Qiagen) and treated with DNase1, according to the manufacturer's instructions. RNA was then quantified and converted to cDNA using the Clontech RNA to cDNA EcoDry Double Primed Premix (Takara). qPCR was performed using PowerUp Sybr Green (Invitrogen) on an Applied Biosystems Quant Studio 3 instrument. Primers were from IDT and were designed using IDT Primer Quest and NCBI Primer Blast tools. The delta-delta Ct method was used to determine relative expression. GAPDH was used as a housekeeping gene.

[10] = tested on: primary lung fibroblasts; experiment: Scratch assay, TGF-β-induced fibroblast migration; type: cell-based, human; details: TGF-β 10 ng/mL, 24 hours
Description: Next, studies were performed to evaluate the effect of IP-10 related peptides on migration of lung fibroblasts in response to TGF-β. Primary lung fibroblasts from healthy patients were plated in 24-well plates in complete medium and incubated overnight. The next day, the medium was changed to quiescent medium and cells were incubated in this medium for 24 hours. The following day, a plus-shaped scratch was made across the cells using a 1000 μL pipette tip. An image was taken at a location that could be identified later. After imaging, cells were either left untreated, treated with 100 ng/mL peptide alone, treated with 10 ng/mL TGF-β, or treated with peptide and TGF-β and incubated for 24 hours. At the end of the incubation time, the cells were imaged in the same location as in the original image to visualize closure of the scratch. The denuded area was calculated using ImageJ software and the percent wound closure was calculated for each treatment group.

[11] = tested on: co-cultures of cardiomyocytes and cardiac fibroblasts; experiment: Fibrotic extracellular matrix (ECM) secretion, co-cultures; type: cell-based, mouse; details: agent alone vs unstimulated cultures, 48 h
Description: as §1
Cardiac fibrosis is marked by overproduction of ECM proteins following injury. To observe the effect of IP-10p on secretion of these molecules, co-cultures of cardiomyocytes and cardiac fibroblasts were used to account for […] signaling taking place between the two dominant cell types in the heart. Fibroblasts and myocytes were plated at a 2:1 ratio using the same culture conditions and treatment groups described above for fibroblast activation. Following a 48-hour incubation with their respective treatments, cells were fixed, permeabilized and stained. Antibodies for collagen α1 type 1 (1:250, Santa Cruz Biotechnology SC8784, Dallas, TX), fibronectin (1:250, Abcam ab2413), and tenascin C (1:200, Abcam ab6346), followed by their appropriate secondary antibodies (Abcam ab150132, ab150077, and 150153, respectively), were used to determine fibrotic ECM secretion from the co-cultures. Expression of these molecules is expressed at CTCF and was quantified using MetaMorph® (Molecular Devices, Sunnyvale, CA).

[12] = tested on: cardiac fibroblasts; experiment: Fibroblast activation assay (αSMA), cardiac fibroblasts; type: cell-based, mouse; details: TGFβ1 10 ng/mL vs untreated control
Description: as §1
Fibroblast activation to myofibroblasts is marked by αSMA expression within the cytoskeleton and serves as a marker to induce fibrosis. Cardiac fibroblasts were plated at 2,000 cells/well in an 8-well chamber slide and allowed to adhere overnight. After 24 hours, cells were washed and treated with: TGFβ1 alone (10 ng/ml), CXCL10 alone (10 μM), IP-10p alone (10 μM), TGFβ1+CXCL10, TGFβ1+IP-10p, or left untreated. After 24 hours, cells were fixed in ice cold methanol for 10 minutes and stained for αSMA (1:200, Abcam ab5694, Cambridge, UK) at 4° C. overnight, followed by a goat-anti-rabbit Alexa Fluor 594-conjugated secondary antibody (Abcam ab150080). After counterstaining with DAPI, cells were imaged, and fibroblast activation was measured using corrected total cell fluorescence (CTCF). These measurements were also performed in co-cultures of cardiomyocytes and cardiac fibroblasts (2:1 ratio)

`CCO` [ethanol, reference compound] was tested, and the “Calcein-AM positive cells, positive control for dead cells” value ([1]; 70% ethanol in water, 30 minutes) was “elimination of the detected Calcein-AM positive cells”.

For C-X-C chemokine ligand 10 [CXCL10], the “cardiomyocyte motility in the presence of TGFβ1” value [2] was “completely inhibited; also recorded: inhibit migration”, the “motility of cardiac fibroblasts, agent alone” value ([3]; 10 μM alone, 24 h, compared to control) was “not altered” and the “migration following TGF-β induction in cardiac fibroblasts” value ([3]; FIG. 1B) was “inhibit migration”. For the same compound, the “reduction of motility of TGFβ1-treated fibroblasts” value ([3]; TGFβ1 10 ng/mL + agent 10 μM, 24 h) was 30%.

For “FAKAIKNFAKAVAKFA [IP-10-3, FAKAIKNFAKAVAKFA]”, the “number of viable cells (Calcein-AM uptake)” value (“number … (Calcein-AM uptake)” for short) [1] was “no impact”.

In the case of FRFLFRGGRFLFRF [CRF-5-3], the “CXCL10-suppressed growth factor-induced ECM production” value [4] is reported as “promote the disinhibition”, the “CXCL10-suppressed growth factor-induced intracellular P38 signaling” value [4] is reported as “promote the disinhibition” and the “CXCL10-suppressed growth factor-induced motility” value [4] is reported as “promote the disinhibition”. The “ECM alterations following TGF-β and/or CXCL10 treatment” value [5] was “CRF-5-3-mediated alterations”, the “CXCL10-induced gene expression on CM” value [6] was “altered” and the “CXCL10-induced gene expression on FB” value [7] was “altered”. The “CXCL10 inhibition of TGF-β-induced P38 MAPK-dependent extracellular matrix production” value [8] was “altered”.

In the case of FRWLWRGGRWLWRF [CRF-5-5], the “CXCL10-suppressed growth factor-induced ECM production” value [4] is reported as “promote the disinhibition”, the “CXCL10-suppressed growth factor-induced intracellular P38 signaling” value [4] is reported as “promote the disinhibition” and the “CXCL10-suppressed growth factor-induced motility” value [4] is reported as “promote the disinhibition”. For the same compound, the “CXCL10 inhibition of TGF-β-induced matrix production” value [4] was “interfered”, the “CXCL10-induced gene expression on CM” value [6] was “altered” and the “CXCL10-induced gene expression on FB” value [7] was “altered”. The “CXCL10 inhibition of TGF-β-induced P38 MAPK-dependent extracellular matrix production” value [8] was “altered”.

With PESKVIKNLLKVASKERSKRSP [IP-10-1] the “number … (Calcein-AM uptake)” value [1] was “no impact”.

PESRVIKNLLRVVSKEKSRRSP [IP-10-2] was tested, and the “number … (Calcein-AM uptake)” value [1] was “no impact”.

“transforming growth factor beta 1 [TGFβ1]” was tested, and the “expression of pro-fibrotic mRNAs, TGF-β alone” value [9] was “induced expression; also recorded: caused an induction”, the “fibroblast migration (wound closure), TGF-β alone” value [10] was “significantly increased fibroblast migration; also recorded: significantly increased rate of wound closure” and the “collagen secretion, agent alone” value [11] was “significant upregulation”. The “fibronectin secretion, agent alone” value [11] was “significant upregulation”, the “αSMA expression, TGFβ1 alone” value [12] was “drastically increased αSMA expression” and the “increase of cardiac fibroblast motility relative to untreated cells” value ([3]; TGFβ1 10 ng/mL alone, 24 h) was “over 3 fold”.
